One assay deals with E. coli TK-3. Nature of the assay: Antibacterial activity (MIC, agar dilution) against E. coli TK-3*. The assay is classed as cell-based. As to conditions: Escherichia coli. Here is the method: (§1) According to Chemotherapy, vol. 29, No. 1, pp. 76-79 (1981), bacterium was cultured in peptone broth manufactured by Eiken Kagaku K.K. at 37° C. for 20 hours to prepare a bacterial solution of 10^8 cells/ml, and one loopful of the bacterial solution was inoculated into Heart Infusion agar medium (manufactured by Eiken Kagaku K.K.) containing a drug, cultured at 37° C. for 20 hours, after which growth of bacterium was observed. The minimum concentration at which the growth of bacterium was prevented was indicated as MIC (μg/ml).
(§2) *means that β-lactamaseproducing bacteria.
(In agar dilution, organisms are placed on agar that contains the substance at set levels.)

A further assay relates to S. marcescens W-8. Kind of assay: Antibacterial activity (MIC, agar dilution) against S. marcescens W-8*. The class given is cell-based. As to conditions: Serratia marcescens. Here is the method: as §1, §2
Setting [1] is: TK3, E. coli TK-3* (β-lactamase-producing bacteria), Heart Infusion agar, 37° C., 20 hours, one loopful of 10^8 cells/ml, read-out: MIC.
[2] abbreviates: W8, S. marcescens W-8* (β-lactamase-producing bacteria), Heart Infusion agar, 37° C., 20 hours, one loopful of 10^8 cells/ml, read-out: MIC.

The structures appear in SMILES notation. Values after ≈ are worked out from the molar mass of the structure shown. Read-outs that look alike come from different tables or passages of the source.

The results in this text go back to patent US5185330A, “Penam derivatives and salts thereof, and antibacterial agent comprising the same” (Toyama Chemical Co., Ltd., priority 1989, dated 1993).

Broadly, the MIC is the lowest concentration that inhibits growth of the organism.

With `CC(=O)Oc1ccc(C(C(=O)N[C@@H]2C(=O)N3C[C@@](C(=O)O)(N4CCN(NC(N)=O)C4=O)S[C@H]23)S(=O)(=O)O)cc1OC(C)=O` (stereo partly shown) [compound 28], the MIC with E. coli TK-3 (setting [1]) came out at 6.25 µg/mL (≈ 9.7 µM); against S. marcescens W-8 (W8, 20 h), 3.13 µg/mL (≈ 4.86 µM).
Regarding `CCN1CCN(C(=O)NN2CCN([C@]3(C(=O)O)CN4C(=O)[C@@H](NC(=O)C(C(=O)O)c5ccc(O)cc5)[C@H]4S3)C2=O)C(=O)C1=O` (stereo partly shown) [compound 14], the minimum inhibitory concentration (MIC) in the assay with E. coli TK-3 (setting [1]) and with S. marcescens W-8 (setting [2]) was 3.13 µg/mL (≈ 4.94 µM) in each case.
For `CON=C(C(=O)N[C@@H]1C(=O)N2C[C@@](C(=O)O)(N3CCN(N=C4SCCS4)C3=O)S[C@H]12)c1csc(N)n1` [compound 47], the MIC in the assay on E. coli TK-3 (TK3, 20 h) was 0.78 µg/mL (≈ 1.36 µM); in the assay on S. marcescens W-8 (setting [2]), 6.25 µg/mL (≈ 10.9 µM).
Take `O=C(O)C(C(=O)N[C@@H]1C(=O)N2C[C@@](C(=O)O)(N3CCN(N=C4C=CCC4)C3=O)S[C@H]12)c1ccccc1` (stereo partly shown) [compound 50]: the MIC in the assay on E. coli TK-3 (TK3, 20 h) worked out at 0.39 µg/mL (≈ 0.759 µM); with S. marcescens W-8 (setting [2]), 0.1 µg/mL (≈ 0.195 µM).
As to `CNC(=O)NN1CCN([C@]2(C(=O)O)CN3C(=O)[C@@H](NC(=O)C(C(=O)O)c4ccc(O)cc4)[C@H]3S2)C1=O` (stereo partly shown) [compound 17], the minimal inhibitory concentration (MIC) with E. coli TK-3 (setting [1]) and in the assay with S. marcescens W-8 (setting [2]) was 1.56 µg/mL (≈ 2.99 µM) in each case.
As to `NC(=O)Nc1ccc([C@H](C(=O)N[C@@H]2C(=O)N3C[C@@](C(=O)O)(N4CCN(NC(N)=O)C4=O)S[C@H]23)S(=O)(=O)O)c(Cl)c1` [compound 36], the minimum inhibitory concentration (MIC) in the assay with E. coli TK-3 (setting [1]) was determined as 12.5 µg/mL (≈ 20.1 µM); in the assay on S. marcescens W-8 (setting [2]) it was 1.56 µg/mL (≈ 2.51 µM).
For the compound `CC(=O)Oc1cc(Cl)c([C@H](C(=O)N[C@@H]2C(=O)N3C[C@@](C(=O)O)(N4CCN(N=CC=NNC(N)=O)C4=O)S[C@H]23)S(=O)(=O)O)cc1OC(C)=O` [compound 34], the MIC was 0.2 µg/mL (≈ 0.273 µM) in the assay on E. coli TK-3 (setting [1]) and 0.39 µg/mL (≈ 0.532 µM) with S. marcescens W-8 (W8, 20 h).
`O=C(O)C(C(=O)N[C@@H]1C(=O)N2C[C@@](C(=O)O)(N3CCN(N=C4SCCS4)C3=O)S[C@H]12)c1ccccc1` (stereo partly shown) [compound 1]: the minimum inhibitory concentration (MIC) in the assay with E. coli TK-3 (TK3, 20 h) was 0.39 µg/mL (≈ 0.707 µM); in the assay on S. marcescens W-8 (setting [2]), 0.1 µg/mL (≈ 0.181 µM).
In the same order, the values of `C=CC=NN1CCN([C@]2(C(=O)O)CN3C(=O)[C@@H](NC(=O)C(C(=O)O)c4ccc(O)cc4)[C@H]3S2)C1=O` (stereo partly shown) [compound 18] are at most 0.05 µg/mL and 0.1 µg/mL (≈ 0.199 µM).
Consider `C#CC=NN1CCN([C@]2(C(=O)O)CN3C(=O)[C@@H](NC(=O)C(C(=O)O)c4ccc(O)cc4)[C@H]3S2)C1=O` (stereo partly shown) [compound 19], for which the MIC in the assay with E. coli TK-3 (TK3, 20 h) is at most 0.05 µg/mL; with S. marcescens W-8 (W8, 20 h) it was at most 0.05 µg/mL.
Turning to `O=C(O)C=CC=NN1CCN([C@]2(C(=O)O)CN3C(=O)[C@@H](NC(=O)C(c4cc(O)c(O)cc4Cl)S(=O)(=O)O)[C@H]3S2)C1=O` (stereo partly shown) [compound 48], the minimum inhibitory concentration (MIC) in the assay with E. coli TK-3 (setting [1]) and in the assay with S. marcescens W-8 (setting [2]) was 0.1 µg/mL (≈ 0.158 µM) each time.
